The values below come from patent publication US8008452B2, “Phosphorylated Ndr kinase” (Novartis Forschungesstiftung, Zweigniederlassung Friedrich …, priority 2002, dated 2011).

Series [1] concerns HA-NDR1. In words: HA-NDR1 kinase assay on 12CA5 immunoprecipitates from transfected, treated COS-1 cells. Type of series: cell-based, human. The method, then:
In some experiments, the cells were treated for 60 min with 1 microM okadaic acid in 0.1% N,N-dimethylformamide (DMF) (Alexis Corp.), 50 microM BAPTA-AM (1,2-bis (o-aminophenoxy) ethane-N,N,N′,N′-tetraacetic acid tetra (acetoxy-methyl)ester) in 0.1% diimethylsulfoxide (DMSO; Sigma), or 20 microM thapsigargin in 0.1% DMSO (Alomone) 24 hours after transfection.
Transfected and treated COS-1 cells were washed once with ice-cold PBS, and harvested by rubber policeman in 1 ml ice-cold PBS containing 1 mM Na3VO4 and 20 mM beta-glycerophosphate before lysis in 500 microliters of IP buffer (20 mM Tris-HCl pH 8.0, 150 mM NaCl, 1% Nonidet P-40, 10% glycerol, 1 mM Na3VO4, 20 mM beta-glycerolphosphate, 1 microM microcystin-LR, 50 mM NaF, 0.5 mM PMSF, 4 microM leupeptin, 1 mM benzamidine, and 1 tablet/10 ml IP of Complete protease inhibitors (Roche)). Lysates were centrifuged at 20 000 g for 20 min and triplicate aliquots (200 microg) of supernatant were precleared with protein A-Sepharose (Amersham Pharmacia Biotech) for 60 min and mixed subsequently for 3 h at 4° C. with 12CA5 antibody prebound to protein A-Sepharose (˜1 microg antibody bound to 2 microl beads). The beads were then washed twice with IP buffer, once for 10 min with IP buffer containing 1 M NaCl, once again for 10 min with IP buffer, and finally twice with 20 mM Tris-HCl pH 7.5 containing 4 microM leupeptin and 1 mM benzamidine. Thereafter, beads were resuspended in 30 microliters buffer containing 20 mM Tris-HCl pH 7.5, 10 mM MgCl2, 1 mM DTT, 100 microM [gamma-^32P]ATP (˜0.1 microCi/microliter), 1 microM cAMP-dependent protein kinase inhibitor peptide PKI (Bachem), 4 microM leupeptin, 1 mM benzamidine, 1 microM microcystin-LR, and 1 mM NDR1 substrate peptide ([…]). After 60 min incubation at 30° C., 15 microliters of supernatant were removed, and phosphate incorporation into the substrate peptide determined as described for GST-NDR1 above.
COS-1 cells expressing either wild type HA-NDR1 or the indicated mutants were treated for 1 h with 1 microM okadaic acid or with solvent alone. HA-tagged NDR kinase variants were then immunoprecipitated (out of 100 microgram of detergent extracts) with 12CA5 monoclonal antibody and assayed for kinase activity by a peptide kinase assay as described above.
Mock-transfected or HA-NDR1-expressing COS-1 cells were treated for 1 h with […], 50 microM BAPTA-AM, and […] or with solvent (0.1% DMF or 0.1% DMSO) alone. 12CA5 immunoprecipitates (out of 100 microgram protein extract) were then assayed using the peptide kinase assay for NDR1 kinase activity.
To test whether hMOB1 plays a role in NDR activation, myc-hMOB1 or the empty vector was cotransfected with HA-NDR1 in COS1 cells and treated with OA. 12CA5 immunoprecipitates were then assayed using the peptide kinase assay for HA-NDR kinase activity. […] GST-MOB and GST respectively was added to immunoprecipitated HA-NDR and kinase reaction were performed. The reactions were resolved on a 10% SDS PAGE and the radioactivity visualised by using a phosphoimager.

For series [2], the system named is HA-NDR1. In words: Immunodetection of HA-NDR1 phosphorylated on Ser281 or Thr444 from COS-1 cells. It counts as cell-based, human. To be noted: for phosphorylation of HA-NDR1 on Ser281: immunoblot with anti-P-S281; for phosphorylation of HA-NDR1 on Thr444: immunoblot with anti-P-T444. The method, then:
Either 1 microgram GST-NDR1 or HA-NDR1 immunoprecipitated from 100 microgram COS-1 detergent extracts as described above was separated on 10% SDS-PAGE and immunoblotted 2 h at RT or overnight at 4° C. with anti-Ser281P antisera (1:1000) in the presence of 50 microg/ml competing unphosphopeptide or anti-Thr444P purified antibody (1:500). Both antibodies were detected with horseradish peroxidase-conjugated donkey anti-rabbit Ig antibody (Amersham biosciences) and developed by ECL (chemiluminescence; Amersham Pharmacia Biotech).
To examine this possibility, extracts from transfected COS-1 cells were analyzed with the anti-Ser281P and anti-Thr444P antisera. Protein extracts (10 microg) from transfected COS-1 cells were immunoblotted with 12CA5 to verify similar expression levels of each HA-NDR1 construct. For the analysis of phosphorylation status, 12CA5-immunoprecipitated HA-NDR1 variants (out of 100 microg protein extract) were analysed by immunoblotting with phosphospecific antibodies directed against P-S281 or P-T444.
Protein extracts (10 microg) from mock- and HA-NDR1-transfected COS-1 cells were also immunoblotted with 12CA5 to verify equal expression levels of HA-NDR1 construct. For the analysis of phosphorylation status, 12CA5-immunoprecipitated HA-NDR1 (out of 100 microgram protein extract) was analysed by immunoblotting with phosphospecific antibodies directed against P-S281 or P-T444.
In general terms: A western blot detects proteins with antibodies after separation by electrophoresis.

In another series the test system is myc-hMOB1. In words: Co-immunoprecipitation of HA-NDR and myc-hMOB1 from COS-1 cells. It counts as binding, human. The conditions noted are these: COS1 cells cotransfected with HA-NDR and myc-hMOB1. The method, then: HA-tagged hNDR and myc-tagged hMOB1 were cotransfected in COS1 cells, which were stimulated with okadaic acid or solvent alone. After cell lysis and extract preparation, HA-NDR was immunoprecipitated and co-immunoprecipitated myc-hMOB1 detected or Myc-hMOB1 was immunoprecipitated and co-immunoprecipitated HA-NDR detected.
HA-NDR, wt and mutants, and myc-hMOB1 were cotransfected into COS-1 cells and the cells were treated with OA prior to lysis. HA-NDR was immunoprecipitated and the coimmunoprecipitated myc-hMOB1 detected. […] Furthermore, the two important in vivo phosphorylation sites of NDR, serine-281 in the activation segment and the hydrophobic motif site threonine-444 in the C-terminal regulatory domain were tested, as well as the threonine 74 site in the N-terminal regulatory domain, for their role in NDR-MOB interaction.
HA-NDR N-terminal point mutants and myc-mob1 were co-transfected into COS1 cells which were treated with OA prior to lysis. HA-NDR mutants were immunoprecipitated and coimmunoprecipitated myc-hMOB1 detected.
In this Example, the effect of treatment of COS1 cells with BAPTA-AM on the NDR-MOB Interaction was determined. HA-NDR and myc-MOB1 was cotransfected into COS1 cells and the cells were treated with BAPTA-AM and OA or the solvents alone prior to lysis. HA-NDR was immunoprecipitated and co-immunoprecipitated myc-MOB1 detected. The kinase activity of the HA-NDR immunoprecipitates was measured in a peptide kinase assay.

In series [3] the test system is HA-NDR1. The series is described as follows: HA-NDR1 kinase assay on 12CA5 immunoprecipitates from transfected, treated COS-1 cells. Type of series: cell-based, human. More on the design: dose or concentration left out as unconfirmed.
The subject of a further series is NDR2. In words: Western blot of NDR2 variants with phosphorylation site specific antibodies. Type of series: cell-based, human. The source says:
This was described above for the corresponding mutants of NDR1.

The next series concerns HA-NDR2. The series is described as follows: HA-NDR2 protein kinase activity after cell treatment with okadaic acid or solvent. The conditions noted are these: for activation of NDR2 mutant by OA: cell treatment with OA; for basal kinase activity of NDR2 mutant: solvent alone, compared with HA-NDR2-WT. It counts as cell-based, human. The method, then: All other procedures (including bacterial expression, kinase assays, immunodetection and mass spectrometry) were carried out essentially as described in the Methodology section above.
To further examine this NDR2 mutants were created in which either Ser-282 or Thr-442 were replaced by an alanine. Additionally an in vitro phosphorylation site mutant T75A essentially as described above, and a kinase dead mutant K119A was created for Ndr2. The protein kinase activity of each of these mutants was measured following cell treatment with okadaic acid (OA) or solvent alone. HA-NDR2-WT was potently stimulated (˜10-fold) by OA.

Entries after “also recorded” stand apart in the source; their conditions may differ.

As for `CC(=O)OCOC(=O)CN(CC(=O)OCOC(C)=O)c1ccccc1OCCOc1ccccc1N(CC(=O)OCOC(C)=O)CC(=O)OCOC(C)=O` [BAPTA-AM, 1,2-bis (o-aminophenoxy) ethane-N,N,N′,N′-tetraacetic acid tetra (acetoxy-methyl)ester], the “Spec. Activity (NDR1 kinase activity)” value with HA-NDR1 [1] is on record as 0.2676. Moreover, in the series on HA-NDR1 [2], the “phosphorylation of HA-NDR1 on Ser281” value is listed as “declined almost to the baseline” and the “phosphorylation of HA-NDR1 on Thr444” value is on record as “declined almost to the baseline”. In addition, the “effect of cell treatment on NDR-MOB interaction” value with myc-hMOB1 is on record as “reduction of the NDR-MOB interaction”. Further, the “effect on okadaic acid-stimulated NDR1 activity” value with HA-NDR1 [3] is given as “dramatically reduced; also recorded: reduces OA induced NDR kinase activation”.
Regarding “NDR2 wt: human NDR2 wild type (SEQ ID NO:3), HA-tagged”, in the series on NDR2, the “increase of Ser282 phosphorylation after OA treatment” value is recorded as “increased after OA treatment”, the “phosphorylation of NDR2 on Ser282” value is recorded as “becomes phosphorylated on Ser282” and the “phosphorylation of NDR2 on T442 upon OA treatment” value was “becomes phosphorylated upon OA treatment”.
As for K119A: NDR2 kinase dead mutant K119A, in the series with HA-NDR2, the “activation of NDR2 mutant by OA” value is “didn't show any activation by OA” and the “basal kinase activity of NDR2 mutant” value is given as “nearly undetectable levels”. Moreover, in the series on NDR2, the “phosphorylation of NDR2 on Ser282” value is listed as “not phosphorylated on S282” and the “phosphorylation of NDR2 on T442 upon OA treatment” value was “becomes phosphorylated upon OA treatment”.
Consider “T75A: NDR2 in vitro phosphorylation site mutant T75A”, for which, in the series with HA-NDR2, the “activation of NDR2 mutant by OA” value was “still activated” and the “basal kinase activity of NDR2 mutant” value is listed as “markedly reduced basal activity”. Besides, in the series with NDR2, the “phosphorylation of NDR2 on Ser282” value was “becomes phosphorylated on Ser282” and the “phosphorylation of NDR2 on T442 upon OA treatment” value is on record as “becomes phosphorylated upon OA treatment”.
Consider “S282A: NDR2 mutant, Ser-282 replaced by alanine”, for which, in the series with HA-NDR2, the “activation of NDR2 mutant by OA” value is “still activated” and the “basal kinase activity of NDR2 mutant” value was “markedly reduced basal activity”. The “phosphorylation of NDR2 on T442 upon OA treatment” value with NDR2 was “becomes phosphorylated upon OA treatment”.
On to `C/C=C(/C)C(=O)O[C@H]1C(C)=C2[C@H]([C@@H]1OC(=O)CCCCCCC)[C@@](C)(OC(C)=O)C[C@H](OC(=O)CCC)[C@@]1(O)[C@H]2OC(=O)[C@@]1(C)O` [thapsigargin], for which, in the series on HA-NDR1 [2], the “phosphorylation of HA-NDR1 on Ser281” value is given as “rescued” and the “phosphorylation of HA-NDR1 on Thr444” value is recorded as “rescued”. For the same compound, the “effect on okadaic acid-stimulated NDR1 activity” value in the series with HA-NDR1 [3] was “rescued”.
In the case of “T442A: NDR2 mutant, Thr-442 replaced by alanine”, in the series with HA-NDR2, the “activation of NDR2 mutant by OA” value is “still activated” and the “basal kinase activity of NDR2 mutant” value is on record as “markedly reduced basal activity”. Also, in the series with NDR2, the “increase of Ser282 phosphorylation after OA treatment” value is “increased after OA treatment” and the “phosphorylation of NDR2 on Ser282” value was “becomes phosphorylated on Ser282”.
Consider `C=C1[C@@H](O)[C@@H]2O[C@]3(CC[C@H](/C=C/[C@@H](C)[C@@H]4CC(C)=C[C@@]5(O[C@H](C[C@@](C)(O)C(=O)O)CC[C@H]5O)O4)O3)CC[C@H]2O[C@@H]1[C@@H](O)C[C@H](C)[C@H]1O[C@@]2(CCCCO2)CC[C@H]1C` [okadaic acid, reference compound], for which the “Spec. Activity (NDR1 kinase activity)” value in the series on HA-NDR1 [1] stood at 10.142. Also, in the series with HA-NDR1 [2], the “phosphorylation of HA-NDR1 on Ser281” value is on record as “further enhanced” and the “phosphorylation of HA-NDR1 on Thr444” value is “only became phosphorylated after okadaic acid treatment”. Further, the “stimulation of HA-NDR2-WT kinase activity” value in the series on HA-NDR2 (cell treatment with OA versus solvent alone) is given as around 10 fold. Besides, the “effect of cell treatment on NDR-MOB interaction” value in the series on myc-hMOB1 was “dependent on stimulation of the cells with OA”.
